Among the data in the NIST ThermoML archive (doi:10.1016/j.tca.2012.08.001) are refractive index and mass density values, retold here.

Series [1] in a line: refractive index (Na D-line) (dimensionless). The conditions noted are these: 298.2 K; 101.33 kPa; Liquid; Standard Abbe refractometry.
The conditions of series [2]: 298.2 K; 101.33 kPa; Liquid; Vibrating tube method.

Each structure is given as a SMILES string. Numbers after ± are expanded uncertainties.

Regarding `O=CO` [formic acid], in series [1], the refractive index is on record as 1.3713 ± 0.2. Also, the mass density in series [2] amounted to 1219.32 ± 0.61 kg/m3.

In the case of `O` [water], in series [1], the refractive index was found to be 1.3324 ± 0.2.

`CCCCCCCCCCO` [decan-1-ol]: the refractive index in series [1] was 1.4344 ± 0.2. In series [2], the mass density worked out at 826.8 ± 0.36 kg/m3.

In general, refractive index refers to the speed of light in vacuum divided by its phase velocity in the sample. The mass density is mass per unit of volume.
